Patent US20240279201A1, “DUAL WNT SIGNALING PATHWAY INHIBITORS AND AMPK ACTIVATORS FOR TREATMENTS OF DISEASE” (priority 2021, published 2024)
Each block holds one molecule with its values, some of them ahead of it.

Experiments:
CRC cells = conditions: as reported in literature; cited from earlier work
HEK293 cells = test: Cytotoxicity (CC50) during the luciferase gene reporter assay; type: cell-based; conditions: short treatment duration of the luciferase gene reporter assay
[1] = tested on: Wnt/β-Catenin signaling pathway; test: Wnt signaling luciferase (TOPflash) reporter gene assay; type: cell-based; conditions: for IC50: luciferase reporter gene assay, mean of three independent experiments, read-out: IC50 (nM) to inhibit the Wnt signaling activity
Excerpt: A dual-luciferase gene reporter assay was used to test inhibitory activities of new compounds on Wnt signaling. […] Therefore, the effects of new compounds on AMPK was examined. […]

SW480 cells = test: Mitochondrial function in SW480 cells
RPS6KA3 = RPS6KA3 (Homo sapiens (Human), UniProt P51812); test: Off-target kinase panel, RPS6KA3; conditions: read-out: inhibition of RPS6KA3
RPS6KA3, sequence (P51812 whole entry, species assumed): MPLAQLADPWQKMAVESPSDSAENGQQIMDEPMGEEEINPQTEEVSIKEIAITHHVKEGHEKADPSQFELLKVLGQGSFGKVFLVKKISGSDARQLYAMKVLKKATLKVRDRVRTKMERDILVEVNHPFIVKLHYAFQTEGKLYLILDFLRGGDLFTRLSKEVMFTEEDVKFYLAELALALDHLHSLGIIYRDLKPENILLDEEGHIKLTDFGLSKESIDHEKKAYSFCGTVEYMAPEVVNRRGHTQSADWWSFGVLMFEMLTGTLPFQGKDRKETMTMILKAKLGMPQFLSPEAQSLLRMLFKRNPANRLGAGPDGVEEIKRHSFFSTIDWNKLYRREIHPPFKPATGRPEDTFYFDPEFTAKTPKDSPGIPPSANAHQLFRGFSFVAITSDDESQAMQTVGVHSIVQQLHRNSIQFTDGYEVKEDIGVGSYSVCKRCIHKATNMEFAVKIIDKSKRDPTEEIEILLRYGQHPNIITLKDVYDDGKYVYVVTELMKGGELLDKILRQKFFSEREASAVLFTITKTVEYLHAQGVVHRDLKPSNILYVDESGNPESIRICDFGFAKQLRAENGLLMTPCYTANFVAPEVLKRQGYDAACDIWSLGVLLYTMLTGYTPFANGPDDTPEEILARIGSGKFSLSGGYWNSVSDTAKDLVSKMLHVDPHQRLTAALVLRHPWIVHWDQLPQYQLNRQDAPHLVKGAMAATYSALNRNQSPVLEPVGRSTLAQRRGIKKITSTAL

Axin 1 = Axin 1 (Homo sapiens (Human), UniProt O15169); test: Western blotting of Axin 1 in HEK293 cells; type: cell-based; conditions: 100 nM, 24 h
Description: (§1) FIG. 6A-FIG. 6E illustrate the development of Axin stabilizers with dual activities of Wnt inhibition and AMPK activation. […] HEK293 cells were used. B&C: 100 nM compounds, 24 h. FIG. 6D is a table showing the activity profile of YA6060. F=bioavailability; soubility is aqueous solubility.
(§2) A dual-luciferase gene reporter assay was used to test inhibitory activities of new compounds on Wnt signaling. […] Axin is also reported to form a complex with AMPK and its upstream kinase LKB1 (FIG. 12A and FIG. 12B) to facilitate AMPK activation. Therefore, the effects of new compounds on AMPK was examined. […] YA6060 and its analogs had dual activities of potent Wnt signaling inhibition and AMPK activation, which were dependent on the levels of scaffolding protein Axin.

[2] = Cytotoxicity (CC50) during the luciferase gene reporter assay; type: cell-based; conditions: human, HEK293 cells; short treatment duration of the luciferase gene reporter assay
β-catenin = β-catenin (Homo sapiens (Human), UniProt P35222); test: Western blotting of β-catenin in HEK293 cells; type: cell-based; conditions: 100 nM, 24 h
Description: as §1, §2

[3] = tested on: SW480, SW620, and HT29 cells; test: Colony formation assay; type: cell-based
Excerpt: FIG. 23A is an image illustrating a colony formation assay. […] The orange circle indicates cells in early apoptosis.

[4] = tested on: Wnt signaling in SW480 cells; test: Luciferase gene reporter (TOPflash) assay in SW480 cells; type: cell-based, human
in vivo = conditions: C57/BL6, mouse, in vivo, po
Description: (§3) The ADMET and PK properties of YA6060 was determined.
PK/Tox. The four selected compounds from in vitro evaluation above are subjected to PK and toxicity assessment in C57/BL6 mice. […] Compound concentrations is determined by LC/MS/MS. PK analysis is carried out on Phoenix Winnolin using non-compartmental analysis and compartment models. Compound accumulation in major tissues, including liver, kidney, heart, brain and intestine, are quantified. […] For study ii, a half number of mice per group are sacrificed immediately after the 3-week course and the remaining after a 2-week washout period to assess delayed toxicity. In toxicity studies, blood is collected upon euthanasia for liver and renal chemistries and complete blood counts, and major organs harvested and examined macro- and microscopically by veterinarian pathologists. It is expected that an understanding of PK properties, such as bioavailability, AUC, clearance, and toxic effects, such as general tolerance and specific toxicity in the liver, kidney, other major organs, and particularly Wnt-dependent tissues, such as intestine, stomach, and skin is established for these selected compounds.

[5] = tested on: Wnt signaling in SW620 cells; test: Luciferase gene reporter (TOPflash) assay in SW620 cells; type: cell-based; conditions: Homo sapiens, SW-620, read-out: IC50, inhibition of Wnt signaling
SW620 xenograft = SW620 xenograft in nude mice; type: in vivo
physchem = conditions: water, aqueous solubility
Description: as §3
Determination of physiochemical properties. The profiles of six selected analogs is estimated in silico, and selected Axin stabilizers are evaluated in in vitro assays: the aqueous solubility is determined using a multiscreen solubility filter plate (Millipore, Billerica, MA) coupled with LC-MS/MS, as performed for the already synthesized YA6060 analogs; the cell viability assays on selected analogs is measured using HEK293 cells; the intestinal permeability by determining the transport from the apical to the basolateral (A to B) in Caco-2 monolayers; the metabolic stability by incubating the compounds with mouse microsomes and liver tissue S9 fraction and analyzing by LC-MS/MS.

HT29 cells = test: Viability of HT29 cells; type: cell-based; conditions: Homo sapiens, HT-29, read-out: IC50, cell viability
AMPK [6] = test: Western blotting of phosphorylated AMPK in HEK293 cells; type: cell-based; conditions: 100 nM, 24 h
Description: as §1, §2

AMPK [7] = test: AMPK activation in SW620 cells (immunoblotting); type: cell-based
Description: HEK293 cells were stained with anti-axin-1 or DAPI and studied under fluorescence microscopy. FIG. 26B is an image illustrating enhanced AMPK phosphorylation by Axin overexpression (empty pcDNA3 vs. pcDNA3-Axin-1) in HEK293 cells. […] See FIG. 23A-FIG. 23C for Axin knockdown. […] Cells were treated for 24 h.
Treatment of compound YW2049 indicated no effects on total protein levels of AMPK and ACC in SW620 cells.
The effects of FX analogs in Axin stabilization and AMPK activation were further studied by genetic manipulation of Axin. Axin overexpression led to enhanced AMPK activation (FIG. 26A and FIG. 26B). In contrast, it has been reported that knockdown of Axin in cells and in mouse liver impairs AMPK activation. […] This timeline is consistent with the reports that Axin can form a complex with AMPK.

SMILES: O=c1[nH]cc(F)c(=O)[nH]1 [5-FU]
IC50 in killing CRC cells (CRC cells): low μM

SMILES: Cc1ccccc1-n1nnc(C(=O)Nc2ccc3cc(CN4CCNCC4)ccc3n2)c1C [YA10951, 5-Methyl-N-(6-(piperazin-1-ylmethyl)quinolin-2-yl)-1-(o-tolyl)-1H-1,2,3-triazole-4-carboxamide]
CC50 (HEK293 cells): > 92000 nM | IC50 [1]: 4.3 nM

SMILES: O=C1[O][Pt]2([NH][C@@H]3CCCC[C@H]3[NH]2)[O]C1=O [oxaliplatin]
IC50 in killing CRC cells (CRC cells): low μM

inhibition at 1000 µM (RPS6KA3): 39% | level of Axin 1 (Axin 1): stabilizing | protein level of β-catenin (β-catenin): decreased | IC50 ([4]; Homo sapiens, read-out: IC50, inhibition of Wnt signaling): 1.2 nM | bioavailability (in vivo): 13% | IC50 [5]: 0.19 nM | solubility (physchem): < 10 µg/mL | IC50 (HT29 cells): 17000 nM
SMILES: Cc1c(C(=O)Nc2ccc3ccccc3n2)cnn1-c1ccccc1Br [YW2065]
O2 consumption rate and ATP production (SW480 cells): reduced O2 consumption rate | CC50 [2]: > 92000 nM | colony formation [3]: inhibited the colony formation | extent of inhibition of Wnt signaling activity in reporter assays [4]: could abolish Wnt activity at high concentrations | tumor growth and tumor weight (SW620 xenograft; i.p. each day, dose-dependent): reduced both tumor growth | body weight gain (SW620 xenograft; mouse, in vivo): not affected | levels of phosphorylated AMPK (p-AMPK) (AMPK [6]): significantly increased | p-AMPK levels (AMPK [7]): increased

SMILES: Cc1ccccc1-n1nnc(C(=O)Nc2ccc3ccccc3n2)c1C [YW1128]
p-AMPK levels (AMPK [7]): increased

SMILES: Oc1nc(-c2ccc(C(F)(F)F)cc2)nc2c1CSCC2 [XAV939, reference compound]
CC50 [2]: > 92000 nM | extent of inhibition of Wnt signaling activity in reporter assays [4]: could not fully inhibit Wnt signaling activity | inhibition at 1 µM [1]: 74%

IC50 [1]: > 1000 nM
SMILES: Cc1ccccc1-n1nnc(C(=O)Nc2ccc3cccc(CN4CCN(C(=O)OC(C)(C)C)CC4)c3n2)c1C [YA6160, tert-Butyl 4-((2-(5-methyl-1-(o-tolyl)-1H-1,2,3-triazole-4-carboxamido)quinolin-8-yl)methyl)piperazine-1-carboxylate]
CC50 [2]: > 92000 nM

IC50 [1]: 0.46 nM
SMILES: Cc1c(C(=O)Nc2nc3ccccc3s2)nnn1-c1ccccc1F [YA4029, N-(benzo[d]thiazol-2-yl)-1-(2-fluorophenyl)-5-methyl-1H-1,2,3-triazole-4-carboxamide]
CC50 [2]: > 92000 nM | inhibition at 1 µM [1]: 100%

IC50 [1]: > 1000 nM
SMILES: CC(C)(C)c1c(C(=O)Nc2nc3ccc(F)cc3s2)nnn1-c1ccccc1F [YA6174, 5-(Tert-butyl)-N-(6-fluorobenzo[d]thiazol-2-yl)-1-(2-fluorophenyl)-1H-1,2,3-triazole-4-carboxamide]
CC50 [2]: > 92000 nM | inhibition at 1 µM [1]: 40%
